Patent US9073821B2, “Hydroxamic acid derivative” (priority 2010, dated 2015)

Biological target: Pseudomonas aeruginosa LpxC enzyme (Pseudomonas aeruginosa (strain ATCC 15692 / DSM 22644 / CIP 104116 / JCM 14847 / LMG 12228 / 1C / PRS 101 / PAO1), UniProt P47205)
Assay: biochemical
Format: biochemical
Settings: class symbols A/B/C by IC50; Table 3; read-out: Enzyme inhibitory activity (inhibitory activity on Pseudomonas aeruginosa LpxC enzyme)

Row | Structure (SMILES) | IC50
1 | CNC(=O)[C@@](C)(C(=O)NO)N(C)C(=O)c1ccc(C#C/C=C/CCCOC)cc1 [Compound 597, (2S)-N-hydroxy-2-[{4-[(3E)-7-methoxyhept-3-en-1-yn-1-yl]benzoyl}(methyl)amino]-N′,2-dimethylpropanediamide] | < 10 nM
2 | CNC(=O)[C@@](C)(C(=O)NO)N(C)C(=O)c1ccc(C#C/C=C/C2CC2COC)cc1 (stereo partly drawn) [Compound 596, (2S)-N-hydroxy-2-[(4-{(3E)-4-[2-(methoxymethyl)cyclopropyl]but-3-en-1-yn-1-yl}benzoyl)(methyl)amino]-N′,2-dimethylpropanediamide] | < 10 nM

Now from value to molecule:

Row | IC50 | Structure (SMILES)
3 | 10 to 100 nM | CCOC1CN(Cc2ccc(C#Cc3ccc(C(=O)N(C)C(C(=O)NC)C(=O)NO)cc3)cc2OC)C1 (stereo not shown) [Compound 572, 2-[{[4-({4-[(3-ethoxyazetidin-1-yl)methyl]-3-methoxyphenyl}ethynyl)phenyl]carbonyl}(methyl)amino]-N-hydroxy-N′-methylpropanediamide]
4 | < 10 nM | CCOC1CN(Cc2ccc(C#Cc3ccc(C(=O)N(C)C(C(=O)NC)C(=O)NO)cc3)c(F)c2F)C1 (stereo not shown) [Compound 580, 2-[{[4-({4-[(3-ethoxyazetidin-1-yl)methyl]-2,3-difluorophenyl}ethynyl)phenyl]carbonyl}(methyl)amino]-N-hydroxy-N′-methylpropanediamide]
5 | 10 to 100 nM | CNC(=O)C(C(=O)NO)N(C)C(=O)c1ccc(C#CC2=CCCCC2)cc1 (stereo not shown) [Compound 523, 2-[{[4-(cyclohex-1-en-1-ylethynyl)phenyl]carbonyl}(methyl)amino]-N-hydroxy-N′-methylpropanediamide]

Same assay, conditions: inhibitory activity on Pseudomonas aeruginosa LpxC enzyme, class symbols A/B/C; read-out: Enzyme inhibitory activity

Row | Structure (SMILES) | IC50
6 | Cc1nnc(CNC(=O)C(NC(=O)c2ccc(-c3ccc(OCCO)cc3)cc2)C(=O)NO)s1 (stereo not shown) [Compound 155, N-hydroxy-2-({[4′-(2-hydroxyethoxy)biphenyl-4-yl]carbonyl}amino)-N′-[(5-methyl-1,3,4-thiadiazol-2-yl)methyl]propanediamide] | < 10 nM
7 | CNC(=O)C(C(=O)NO)N(C)C(=O)c1ccc(-c2cc(F)c(NC)c(F)c2)cc1 (stereo not shown) [Compound 69, 2-[{[3′,5′-difluoro-4′-(methylamino)biphenyl-4-yl]carbonyl}(methyl)amino]-N-hydroxy-N′-methylpropanediamide] | < 10 nM
8 | CNC(=O)C(C(=O)NO)N(C)C(=O)c1ccc(-c2c(F)c(F)c(NC)c(F)c2F)cc1 (stereo not shown) [Compound 72, N-hydroxy-N′-methyl-2-(methyl {[2′,3′,5′,6′-tetrafluoro-4′-(methylamino)biphenyl-4-yl]carbonyl}amino)propanediamide] | < 10 nM
9 | CNC(=O)C(C(=O)NO)N(C)C(=O)c1ccc(-c2ccc(NC)cc2)c(NC)c1 (stereo not shown) [Compound 101, 2-[{[2,4′-bis(methylamino)biphenyl-4-yl]carbonyl}(methyl)amino]-N-hydroxy-N′-methylpropanediamide] | > 100 nM
10 | CNC(=O)C(C)(C(=O)NO)N(C)C(=O)c1ccc(-c2ccccc2)cc1 (stereo not shown) [Compound 324, 2-[(Biphenyl-4-ylcarbonyl)(methyl)amino]-N-hydroxy-N′,2-dimethylpropanediamide] | < 10 nM
11 | CNC(=O)C(C)(NC(=O)c1ccc(-c2ccccc2)cc1)C(=O)NO (stereo not shown) [Compound 164, 2-[(Biphenyl-4-ylcarbonyl)amino]-N-hydroxy-N′,2-dimethylpropanediamide] | > 100 nM
12 | CNC(=O)C(C(=O)NO)N(C)C(=O)c1ccc(-c2ccc(NCCCCO)cc2)cc1 (stereo not shown) [Compound 20, N-hydroxy-2-[({4′-[(4-hydroxybutyl)amino]biphenyl-4-yl}carbonyl)(methyl)amino]-N′-methylpropanediamide] | 10 to 100 nM
13 | CNC(=O)C(C(=O)NO)N(C)C(=O)c1ccc(-c2ccc3nn(C)cc3c2)cc1 (stereo not shown) [Compound 197, N-hydroxy-N′-methyl-2-{methyl[4-(2-methyl-2H-indazol-5-yl)benzoyl]amino}propanediamide] | 10 to 100 nM
14 | O=C(NC(C(=O)NO)C(=O)NCc1cncs1)c1ccc(-c2ccc(OCCO)cc2)cc1 (stereo not shown) [Compound 11, N-hydroxy-2-({[4′-(2-hydroxyethoxy)biphenyl-4-yl]carbonyl}amino)-N′-(1,3-thiazol-5-ylmethyl)propanediamide] | < 10 nM
15 | CN(C)C(=O)CNC(=O)C(C(=O)NO)N(C)C(=O)c1ccc(-c2ccccc2)cc1 (stereo not shown) [Compound 173, 2-[(biphenyl-4-ylcarbonyl)(methyl)amino]-N-[2-(dimethylamino)-2-oxoethyl]-N′-hydroxypropanediamide] | > 100 nM
16 | Cc1cccc(CNC(=O)C(NC(=O)c2ccc(-c3ccc(OCCO)cc3)cc2)C(=O)NO)n1 (stereo not shown) [Compound 150, N-hydroxy-2-({[4′-(2-hydroxyethoxy)biphenyl-4-yl]carbonyl}amino)-N′-[(6-methylpyridin-2-yl)methyl]propanediamide] | < 10 nM
17 | CNC(=O)C(C(=O)NO)N(C)C(=O)c1ccc(-c2ccc(OCCCNc3ccccc3)cc2)cc1 (stereo not shown) [Compound 75, N-hydroxy-N′-methyl-2-[methyl({4′-[3-(phenylamino)propoxy]biphenyl-4-yl}carbonyl)amino]propanediamide] | < 10 nM
18 | O=C(NC(C(=O)NO)C(=O)NCC1CC1)c1ccc(-c2ccc(OCCO)cc2)cc1 (stereo not shown) [Compound 9, N-(cyclopropylmethyl)-N′-hydroxy-2-({[4′-(2-hydroxyethoxy)biphenyl-4-yl]carbonyl}amino)propanediamide] | 10 to 100 nM
19 | Cn1ccc(CNC(=O)C(NC(=O)c2ccc(-c3ccc(OCCO)cc3)cc2)C(=O)NO)n1 (stereo not shown) [Compound 140, N-hydroxy-2-({[4′-(2-hydroxyethoxy)biphenyl-4-yl]carbonyl}amino)-N′-[(1-methyl-1H-pyrazol-3-yl)methyl]propanediamide] | < 10 nM
20 | CNC(=O)[C@@](C)(C(=O)NO)N(C)C(=O)c1ccc(C#Cc2cnn(C)c2)cc1 [Compound 433, (2S)-N-hydroxy-N′,2-dimethyl-2-[methyl({4-[(1-methyl-1H-pyrazol-4-yl)ethynyl]phenyl}carbonyl)amino]propanediamide] | < 10 nM
21 | CNC(=O)C(C(=O)NO)N(C)C(=O)c1ccc(-c2ccc3ncn(C)c3c2)cc1 (stereo not shown) [Compound 282, N-hydroxy-N′-methyl-2-{methyl[4-(1-methyl-1H-benzimidazol-6-yl)benzoyl]amino}propanediamide] | 10 to 100 nM
22 | O=C(NC(C(=O)NO)C(=O)NCc1ccncc1)c1ccc(-c2ccc(OCCO)cc2)cc1 (stereo not shown) [Compound 124, N-hydroxy-2-({[4′-(2-hydroxyethoxy)biphenyl-4-yl]carbonyl}amino)-N′-(pyridin-4-ylmethyl)propanediamide] | < 10 nM
23 | CNC(=O)[C@](C)(C(=O)NO)N(C)C(=O)c1ccc(C#Cc2ccc(CN3CCCOCC3)cc2)cc1 [Compound 377, (2R)-N-hydroxy-N′,2-dimethyl-2-{methyl[(4-{[4-(1,4-oxazepan-4-ylmethyl)phenyl]ethynyl}phenyl)carbonyl]amino}propanediamide] | < 10 nM

Other lines, results leading:

Row | IC50 | Structure (SMILES)
24 | > 100 nM | CNC(=O)C(C(=O)NO)N(C)C(=O)c1ccc(OC(F)(F)F)cc1 (stereo not shown) [Compound 22, N-hydroxy-N′-methyl-2-{methyl[4-(trifluoromethoxy)benzoyl]amino}propanediamide]
25 | < 10 nM | CNC(=O)C(C(=O)NO)N(C)C(=O)c1ccc(C#CC#Cc2ccoc2)cc1 (stereo not shown) [Compound 484, 2-[({4-[4-(furan-3-yl)buta-1,3-diyn-1-yl]phenyl}carbonyl)(methyl)amino]-N-hydroxy-N′-methylpropanediamide]
26 | 10 to 100 nM | CNC(=O)C(C(=O)NO)N(C)C(=O)c1ccc(C#Cc2cccc(CNC3CC3)c2)cc1 (stereo not shown) [Compound 379, 2-[{[4-({3-[(cyclopropylamino)methyl]phenyl}ethynyl)phenyl]carbonyl}(methyl)amino]-N-hydroxy-N′-methylpropanediamide]
27 | < 10 nM | CNC(=O)C(C(=O)NO)N(C)C(=O)c1ccc(-c2ccc(CCCO)cc2)cc1 (stereo not shown) [Compound 165, N-hydroxy-2-[{[4′-(3-hydroxypropyl)biphenyl-4-yl]carbonyl}(methyl)amino]-N′-methylpropanediamide]
28 | 10 to 100 nM | CNC(=O)C(C(=O)NO)N(C)C(=O)c1ccc(-c2ccc(CN(C)C(C)=O)cc2)cc1 (stereo not shown) [Compound 239, 2-{[(4′-{[acetyl(methyl)amino]methyl}biphenyl-4-yl)carbonyl](methyl)amino}-N-hydroxy-N′-methylpropanediamide]
29 | < 10 nM | CNC(=O)C(C(=O)NO)N(C)C(=O)c1ccc(-c2ccc(SC)cc2)cc1 (stereo not shown) [Compound 42, N-hydroxy-N′-methyl-2-(methyl {[4′-(methylsulfanyl)biphenyl-4-yl]carbonyl}amino)propanediamide]
30 | < 10 nM | CNC(=O)C(C(=O)NO)N(C)C(=O)c1ccc(C#Cc2ccc(OC)nc2)cc1 (stereo not shown) [Compound 219, N-hydroxy-2-[{4-[(6-methoxypyridin-3-yl)ethynyl]benzoyl}(methyl)amino]-N′-methylpropanediamide]
31 | < 10 nM | CNC(=O)C(C(=O)NO)N(C)C(=O)c1ccc(C#Cc2ccc(CCN3CCCOCC3)cc2)cc1 (stereo not shown) [Compound 207, N-hydroxy-N′-methyl-2-{methyl[4-({4-[2-(1,4-oxazepan-4-yl)ethyl]phenyl}ethynyl)benzoyl]amino}propanediamide]
32 | < 10 nM | CNC(=O)C(C(=O)NO)N(C)C(=O)c1ccc(-c2cccc(C)c2)cc1 (stereo not shown) [Compound 29, N-hydroxy-N′-methyl-2-{methyl[(3′-methylbiphenyl-4-yl)carbonyl]amino}propanediamide]
33 | 10 to 100 nM | CNC(=O)C(C(=O)NO)N(C)C(=O)c1ccc(C#Cc2ccc(CNCCC(C)(C)O)cc2)cc1 (stereo not shown) [Compound 323, N-hydroxy-2-[({4-[(4-{[(3-hydroxy-3-methylbutyl)amino]methyl}phenyl)ethynyl]phenyl}carbonyl)(methyl)amino]-N′-methylpropanediamide]
34 | 10 to 100 nM | CNC(=O)C(C(=O)NO)N(C)C(=O)c1ccc(-c2ccnc(C)c2)cc1 (stereo not shown) [Compound 451, N-hydroxy-N′-methyl-2-(methyl {[4-(2-methylpyridin-4-yl)phenyl]carbonyl}amino)propanediamide]
